Assays:
Format in all cases: cell-based, human
DLD1_ABCA1 cells = assay: Cell viability and proliferation assay (XCELLigence); conditions: 40 μg/ml apolipoprotein A1 (72 hours before, 20 μg/ml during acquisition); DLD1_ABCA1 cells
Method: (§1) FIG. 6. A) Proliferation curve in a viability assay carried out by means of XCELLigence technology. The results for the stable cell line overexpressing ABCA1 in the absence and presence of ApoA1 are shown. The cells were treated for 72 hours before the experiment with 40 μg/ml of ApoA1 and with a concentration of 20 μg/ml during acquisition. B) Migration and invasion assays. The method followed was the same as the one described in FIG. 1. (**p-value=0.003; ****p-value<0.0001). C) ABCA1 messenger RNA level (left panel) and ABCA1 protein level (right panel) in the presence and absence of treatment with ApoA1. Results are shown both for the control cells and for those cells overexpressing the transporter.
Cell viability and proliferation assays were carried out by means of XCELLigence technology (ACEA Biosciences, Inc.) following the manufacturer's indications. Migration and invasion assays were carried out in Corning® BioCoat™ Control plates (#354578) and Corning® BioCoat™ Matrigel plates (#354480), respectively, following the manufacturer's indications. […]
(§2) The inventors were able to confirm said results based on the treatment of DLD1 cells expressing ABCA1 with RVX-208 under the conditions already described in detail in Example 3. […] The levels of caveolin-1, a protein whose increased levels have been associated with increases in cell migration and invasion, were also analyzed in this experiment.

DLD1 cells [1] = assay: as above; conditions: ApoA1 40 μg/ml first dose of 72 hours, 20 μg/ml during result acquisition; DLD1 cells
Method: (§3) Cell viability and proliferation assays were carried out by means of XCELLigence technology (ACEA Biosciences, Inc.) following the manufacturer's indications. Migration and invasion assays were carried out in Corning® BioCoat™ Control plates (#354578) and Corning® BioCoat™ Matrigel plates (#354480), respectively, following the manufacturer's indications. For the rescue assays, the cells were treated for 72 hours with 30 μM apabetalone (RVX-208; Biovision). Antibodies: ABCA1 (Ab18180, Abcam. 1:500); caveolin-1 (Ab2910, Abcam. 1:1000); α-tubulin (T9026, Sigma 1:1000). The DLD1 cells correspond to a human colorectal cancer-derived adherent epithelial cell line (ATCC® CCL-221™). The stable cell lines capable of overexpressing ABCA1 were obtained by means of transduction with genetically modified lentivirus.
(§4) Following the same treatment regimen, the inventors carried out migration and invasion assays.
(§5) The same assays were repeated by replacing ApoA1 with a treatment with RVX-208. In this case, DLD1 cells were pre-treated for 72 hours before the start of the experiment with RVX-208 at a concentration of 30 μm and were subjected to a treatment with 15 μM of RVX-208 during the development of the experiments.
(§6) For the purpose of confirming that the effects of RVX-208 in cell phenotype recovery were due to the increase in ApoA-1 expression, the inventors inhibited the expression of said protein by means of transfection of a complementary small RNA, ShApoA1 (FIG. 9). Twenty-four hours after transfection with ShApoA1 expression vector, the inventors started treatment with 30 μM of RVX-208. Cell viability and proliferation in DLD1 cells (D_NoORF) and D1D1 cell lines expressing increased ApoA1 levels (D_ApoA1 ) were analyzed with the xCELLigence system.

DLD1 cells [2] = assay: Invasion assay (Corning BioCoat Matrigel plates); conditions: ApoA1 40 μg/ml 72 hours before, 20 μg/ml during assay; DLD1 cells
Method: as §3, §4, §5, §6

DLD1 cells [3] = assay: Migration assay (Corning BioCoat Control plates); conditions: ApoA1 40 μg/ml 72 hours before, 20 μg/ml during assay
Method: as §3, §4, §5

[4] = tested on: ABCA1 cholesterol transporter; assay: ABCA1 messenger RNA and protein level after treatment
Method: as §1
FIG. 7. A) Proliferation curve in a viability assay carried out by means of XCELLigence technology. Growth of DLD1 cells treated with DMSO as the drug carrier and with Rvx-208 (30 μM). The significant differences existing in the slope of the graph, and therefore in the growth dynamics of the treated cells are shown in the right panel (****p-value<0.0001). B) Migration and invasion assays. The method followed was the same as the one described in FIG. 2 (*p-value=0.0407; ****p-value<0.0001). C) Expression levels of proteins E-cadherin and Vimentin in the presence and absence of Rvx-208. Analysis performed by means of quantitative PCR. The relative expression levels normalized with respect to the untreated control are shown. D) ABCA1, ApoA1, caveolin-1, and α-tubulin immunodetection by means of Western blot. α-tubulin acts as load control. The results of the cells treated with Rvx-208 (30 μM) or with the DMSO carrier are shown. E) Cholesterol flux in cells treated with Rvx-208.
as §3, with “The stable cell lines capable of overexpressing ABCA1 were obtained by means of transduction with genetically modified lentivirus.” left out
as §2

[5] = treatment with ApoA1, control cells and cells overexpressing ABCA1

Substance: ApoA1: apolipoprotein A1 protein administered to the cells
- proliferative capacity (DLD1_ABCA1 cells): dropped to levels that are comparable to the control situation
- cell proliferation (DLD1 cells [1]): significant decrease in cell proliferation
- capacity to invade the extracellular matrix (DLD1 cells [2]): reduced capacities
- capacity to migrate to the serum-rich region (DLD1 cells [3]): reduced capacities to migrate to the serum-rich region
- ABCA1 levels ([4]; direct treatment with ApoA1, as restated in Example 5 (FIG. 6C)): induces an increase in ABCA1 levels
- ABCA1 expression level, messenger RNA level [4, 5]: significantly decreases the expression levels
- ABCA1 expression level, protein level [4, 5]: significantly decreases the expression levels

— patent US20200378993A1, “MEDICAL USES OF APOLIPOPROTEIN A AND ACTIVATORS THEREOF” (FUNDACIÓN IMDEA ALIMENTACIÓN, priority 2017, published 2020)
